Drawing on DBAASP, this text covers MIC for ten compounds.

In brackets after ≈: the same amount, converted by molar mass.

Among the test systems are Bacillus anthracis; Bacillus cereus; Escherichia coli; Staphylococcus aureus; Escherichia coli BL21; Bacillus subtilis.
Holding throughout (test): ≥ marks a high value that may be exact or a test limit, other limits are often not marked, values filed in µg/mL are converted to µM
Experiment [1] has as its system Pseudomonas aeruginosa PAO1.
Experiment [2] concerns Streptococcus pyogenes M1T1 5448.
The test system of experiment [3] is Escherichia coli DH5alpha.
Experiment [4] relates to Staphylococcus aureus ATCC 6538.
The test system of experiment [5] is Staphylococcus epidermidis ATCC 12228.
In experiment [6] the test system is Micrococcus luteus ATCC 4698.
Experiment [7] concerns Streptococcus pyogenes ATCC 19615.
The subject of experiment [8] is Staphylococcus aureus ATCC 25923.
Experiment [9] concerns Enterococcus faecalis ATCC 29212.
Experiment [10] deals with Salmonella enterica subsp. enterica serovar Typhimurium ATCC 14028.
Experiment [11] has as its system Pseudomonas aeruginosa ATCC 27853.
The subject of experiment [12] is Klebsiella pneumoniae ATCC 13883.
The test system of experiment [13] is Staphylococcus aureus USA 300.
The test system of experiment [14] is Staphylococcus aureus ATCC 29213.
Experiment [15] deals with Pseudomonas aeruginosa ATCC 15442.

With `CC[C@H](C)[C@H](NC(=O)[C@@H](NC(=O)[C@H](C)NC(=O)[C@@H]1CCCN1C(=O)[C@H](Cc1ccccc1)NC(=O)[C@@H](NC(=O)[C@H](CCCCN)NC(=O)[C@H](CO)NC(=O)[C@H](C)NC(=O)[C@@H](NC(=O)[C@H](CCCN=C(N)N)NC(=O)[C@H](Cc1ccccc1)NC(=O)[C@H](CC(C)C)NC(=O)[C@H](C)NC(=O)CNC(=O)[C@@H](N)CC(C)C)C(C)C)C(C)C)C(C)C)C(=O)N[C@@H](CO)C(=O)N[C@@H](CCSC)C(=O)N[C@H](C(=O)N[C@@H](CCCCN)C(=O)O)C(C)C` [LGALFRVASKVFPAVISMVK], the MIC in the experiment with Bacillus anthracis worked out at 30 µM (≈ 64 µg/mL); in the experiment on Bacillus cereus it was 30 µM (≈ 64 µg/mL); against Escherichia coli, 120 µM (≈ 256 µg/mL); against Staphylococcus aureus it was 30 µM (≈ 64 µg/mL).

`CC[C@H](C)[C@H](NC(=O)[C@H](CC(C)C)NC(=O)[C@H](C)NC(=O)[C@@H]1CCCN1C(=O)[C@H](Cc1ccccc1)NC(=O)[C@@H](NC(=O)[C@H](CCCCN)NC(=O)[C@H](CO)NC(=O)[C@H](C)NC(=O)[C@@H](NC(=O)[C@H](CCCN=C(N)N)NC(=O)[C@H](Cc1ccccc1)NC(=O)[C@H](CC(C)C)NC(=O)[C@@H](N)Cc1ccccc1)C(C)C)C(C)C)C(=O)NCC(=O)N[C@@H](CCCCN)C(=O)N[C@@H](Cc1ccccc1)C(=O)N[C@@H](CCCCN)C(=O)N[C@@H](CCCCN)C(=O)N[C@@H](CCCCN)C(=O)O` [FLFRVASKVFPALIGKFKKK]: the MIC in the experiment on Bacillus anthracis worked out at 6.88 µM (≈ 16 µg/mL); in the experiment with Bacillus cereus it was 6.88 µM (≈ 16 µg/mL); against Escherichia coli, 27.5 µM (≈ 64 µg/mL); in the experiment on Staphylococcus aureus, 6.88 µM (≈ 16 µg/mL).

For the compound `CC[C@H](C)[C@H](NC(=O)[C@H](CCCN=C(N)N)NC(=O)[C@H](C)NC(=O)[C@H](CCCCN)NC(=O)[C@H](CCCCN)NC(=O)CNC(=O)[C@H](Cc1ccccc1)NC(=O)[C@H](CCCCN)NC(=O)[C@H](CCCN=C(N)N)NC(=O)[C@H](CC(C)C)NC(=O)[C@H](CCC(=O)O)NC(=O)[C@H](CCC(=O)O)NC(=O)[C@H](CCCCN)NC(=O)[C@H](CC(C)C)NC(=O)[C@H](Cc1ccc(O)cc1)NC(=O)[C@H](CC(C)C)NC(=O)[C@@H](NC(=O)[C@H](CC(C)C)NC(=O)[C@H](C)NC(=O)[C@H](CCC(N)=O)NC(=O)[C@H](CCCN=C(N)N)NC(=O)CNC(=O)[C@@H](N)Cc1c[nH]c2ccccc12)[C@@H](C)O)C(=O)N[C@@H](C)C(=O)N[C@@H](Cc1c[nH]c2ccccc12)C(=O)O` [WGRQALTLYLKEELRKFGKKARIAW], the MIC in the experiment on Escherichia coli BL21 was 16 µM (≈ 49 µg/mL); in experiment [1] it was above 128 µM; in experiment [2] it was 0.25 µM (≈ 0.766 µg/mL).

With `CC(C)C[C@H](NC(=O)CNC(=O)[C@H](Cc1ccccc1)NC(=O)[C@H](CC(C)C)NC(=O)[C@@H](N)Cc1ccccc1)C(=O)N[C@@H](C)C(=O)N[C@@H](CO)C(=O)N[C@@H](CCCCN)C(=O)N[C@H](C(=O)N[C@@H](Cc1ccccc1)C(=O)N1CCC[C@H]1C(=O)N[C@@H](C)C(=O)N[C@H](C(=O)N[C@@H](Cc1ccc(O)cc1)C(=O)N[C@@H](CS)C(=O)N[C@@H](CCCCN)C(=O)N[C@H](C(=O)N[C@H](C(=O)N[C@@H](CCCN=C(N)N)C(=O)N[C@@H](CCCCN)C(=O)O)[C@@H](C)O)C(C)C)C(C)C)C(C)C` [FLFGLASKVFPAVYCKVTRK], the MIC against Bacillus anthracis was at least 56.3 µM; in the experiment with Bacillus cereus, at least 113 µM; against Escherichia coli, 28.1 µM (≈ 64 µg/mL); against Staphylococcus aureus, 113 µM (≈ 256 µg/mL).

As for `CC(C)C[C@H](NC(=O)[C@H](CC(C)C)NC(=O)[C@H](CCCCN)NC(=O)[C@H](CO)NC(=O)[C@H](CC(C)C)NC(=O)[C@H](C)NC(=O)[C@H](CCCCN)NC(=O)[C@H](Cc1ccccc1)NC(=O)[C@H](C)NC(=O)[C@H](C)NC(=O)CNC(=O)[C@H](C)NC(=O)[C@@H](N)Cc1ccccc1)C(=O)O` [FAGAAFKALSKLL], the MIC in experiment [3] was at least 299 µM; in experiment [4], 209 µM (≈ 280 µg/mL); in experiment [5], above 299 µM; in experiment [6] it was at least 112 µM.

In the case of `CC(C)C[C@H](NC(=O)[C@H](CO)NC(=O)[C@H](CC(C)C)NC(=O)[C@H](Cc1ccccc1)NC(=O)[C@@H](NC(=O)[C@H](CO)NC(=O)[C@H](CO)NC(=O)[C@H](CCCN=C(N)N)NC(=O)[C@H](Cc1ccccc1)NC(=O)[C@@H](NC(=O)[C@@H](NC(=O)[C@@H]1CCCN1C(=O)[C@H](CO)NC(=O)[C@H](C)N)[C@@H](C)O)C(C)C)C(C)C)C(=O)N[C@@H](Cc1ccccc1)C(=O)N[C@H](C(=O)N[C@H](C(=O)N[C@@H](C)C(=O)N[C@@H](CCCCN)C(=O)N[C@@H](CCCCN)C(=O)O)C(C)C)C(C)C` [ASPTVFRSSVFLSLFVVAKK], the MIC is at least 117 µM against Bacillus anthracis, at least 117 µM against Bacillus cereus, above 117 µM with Escherichia coli and above 117 µM against Staphylococcus aureus.

For the compound `CC[C@H](C)[C@H](NC(=O)[C@H](CCCN=C(N)N)NC(=O)CNC(=O)[C@@H](NC(=O)[C@H](CCCCN)NC(=O)[C@H](CCCN=C(N)N)NC(=O)[C@@H](NC(=O)[C@H](Cc1ccc(O)cc1)NC(=O)[C@H](CCCN=C(N)N)NC(=O)[C@H](CCCN=C(N)N)NC(=O)[C@H](CC(C)C)NC(=O)[C@H](CCC(=O)O)NC(=O)[C@H](CCCCN)NC(=O)[C@H](C)NC(=O)[C@@H](NC(=O)[C@H](CCCN=C(N)N)NC(=O)[C@H](CC(N)=O)NC(=O)[C@@H](NC(=O)[C@H](CCCCN)NC(=O)[C@H](C)N)[C@@H](C)O)[C@@H](C)CC)[C@@H](C)CC)C(C)C)C(=O)N[C@@H](C)C(=O)N[C@@H](CCCN=C(N)N)C(=O)N[C@@H](CCCCN)C(=O)N[C@@H](C)C(=O)N[C@@H](Cc1c[nH]c2ccccc12)C(=O)O` [AKTNRIAKELRRYIRKVGRIARKAW], the minimum inhibitory concentration (MIC) in the experiment with Escherichia coli BL21 worked out at 0.25 µM (≈ 0.764 µg/mL); in [1], 8 µM (≈ 24.4 µg/mL); in experiment [2] it was 0.5 µM (≈ 1.53 µg/mL).

For the compound `CC(C)C[C@H](NC(=O)[C@H](CCCN=C(N)N)NC(=O)[C@H](CO)NC(=O)[C@H](Cc1cnc[nH]1)NC(=O)[C@@H](N)CCCN=C(N)N)C(=O)N[C@@H](CCC(N)=O)C(=O)N[C@@H](CCCN=C(N)N)C(=O)N[C@@H](CCC(=O)O)C(=O)N1CCC[C@H]1C(=O)N[C@@H](CCC(N)=O)C(=O)N[C@H](C(=O)N[C@@H](CCC(N)=O)C(=O)N[C@@H](Cc1c[nH]c2ccccc12)C(=O)N[C@@H](CC(C)C)C(=O)N[C@@H](CCC(=O)O)C(=O)N[C@@H](CCC(N)=O)C(=O)N[C@@H](CCC(N)=O)C(=O)N[C@H](C(=O)N[C@@H](C)C(=O)N[C@@H](CCCCN)C(=O)N[C@@H](CCCN=C(N)N)C(=O)N[C@@H](CCCN=C(N)N)C(=O)N[C@H](C(=O)N[C@@H](CCCCN)C(=O)N[C@@H](CCCN=C(N)N)C(=O)O)[C@@H](C)O)C(C)C)C(C)C` [RHSRLQREPQVQWLEQQVAKRRTKR], the MIC in experiment [7] is at least 100 µM; in experiment [8], above 100 µM; against Bacillus subtilis, at least 100 µM; against Escherichia coli, above 100 µM; in experiment [9] it was above 100 µM; in [10], above 100 µM. Further, the values for the MIC in experiment [11] and in experiment [12] were above 100 µM and at least 100 µM, respectively.

With `CC[C@H](C)[C@H](NC(=O)[C@H](Cc1c[nH]c2ccccc12)NC(=O)[C@H](CCC(N)=O)NC(=O)[C@H](CCCN=C(N)N)NC(=O)CNC(=O)[C@H](C)N)C(=O)N[C@@H](C)C(=O)N[C@@H](CCCCN)C(=O)N[C@@H](Cc1ccc(O)cc1)C(=O)N[C@@H](CC(C)C)C(=O)N[C@@H](CCCN=C(N)N)C(=O)N[C@@H](CCCN=C(N)N)C(=O)N[C@@H](CCC(=O)O)C(=O)N[C@H](C(=O)N[C@@H](CCCN=C(N)N)C(=O)N[C@@H](CCCCN)C(=O)N[C@@H](CCCN=C(N)N)C(=O)NCC(=O)N[C@@H](CCCN=C(N)N)C(=O)N[C@@H](CCCCN)C(=O)N[C@@H](C)C(=O)N[C@H](C(=O)N[C@H](C(=O)N[C@@H](C)C(=O)N[C@@H](Cc1c[nH]c2ccccc12)C(=O)O)[C@@H](C)CC)C(C)C)[C@@H](C)CC` [AGRQWIAKYLRREIRKRGRKAVIAW], the MIC was 2 µM (≈ 6.17 µg/mL) with Escherichia coli BL21, at least 128 µM in experiment [13], 16 µM (≈ 49.3 µg/mL) in experiment [1] and 4 µM (≈ 12.3 µg/mL) in experiment [2].

Regarding `CC[C@H](C)[C@H](NC(=O)[C@H](C)NC(=O)[C@@H](N)C(C)C)C(=O)N[C@@H](C)C(=O)N[C@@H](CC(C)C)C(=O)N[C@@H](CCCCN)C(=O)N[C@@H](C)C(=O)N[C@@H](C)C(=O)N[C@@H](C)C(=O)N[C@@H](Cc1ccc(O)cc1)C(=O)N[C@@H](Cc1cnc[nH]1)C(=O)N[C@H](C(=O)N[C@@H](Cc1cnc[nH]1)C(=O)N[C@@H](CCCCN)C(=O)N[C@@H](CCC(=O)O)C(=O)O)[C@@H](C)O` [VAIALKAAAYHTHKE], the MIC in experiment [14] is 39.4 µM (≈ 64 µg/mL); in [9], 78.9 µM (≈ 128 µg/mL); in [15] it was at least 78.9 µM.
